Data as given in paper PMC8998618, “A Pharmacokinetic and Metabolism Study of the TRPC6 Inhibitor SH045 in Mice by LC-MS/MS” (International Journal of Molecular Sciences, 2022).

Assay: time-dependent metabolization (stability) in HLM and IVIVE of hepatic clearance
Format: in vitro ADME, human
Text: In the widely used concept of the “well-stirred” model, liver represents a single uniform compartment. It is further assumed that the concentration of unbound SH045 leaving the liver is in equilibrium with its unbound concentration in hepatocytes (detailed calculation in Supplementary Materials SM8, summarized values in SR4). Briefly, microsomal intrinsic clearance was converted to hepatic clearance: CLhep = Q × fu × CLint/Q + (fu × CLint), where fu is the unbound fraction of SH045 in blood and Q is the hepatic blood flow in mice.
For this purpose, remaining concentrations of SH045 in microsomes were determined to calculate the intrinsic microsomal clearance CLint,micr, the intrinsic clearance CLint, equal to the maximum enzyme activity of liver and for in vitro-in vivo exploration of hepatic clearance CLhep in mouse and human using the well-stirred model. The algorithm for these calculations is given in detail in the Supplementary Materials SM8. […]
All microsome incubations were stopped with 1 mL ice -cold ACN containing 5 µg/mL IS, vortexed for 1 min and cooled at -20 °C for 10 min. […]
2 µL SH045 (final concentration 0.5 – 100 µM, in triplicate), 12.5 µL HLM or MLM (finally 0.5 mg/mL protein) and 460.5 µL DPBS were vortexed and preincubated 37 °C for 5 min. The reaction was initiated by addition of 25 µL analogously pre-incubated β-NADPH (finally: 1 mM). […]
Testosterone (10 µM in ACN/DPBS 2/3, v/v) instead of SH045 was used as positive control and analyzed by an appropriate HPLC method with UV detection.
Negative controls contained either no NADPH, no MLM or HLM or none of them. […]
Mean maximum rate vmax and Michaelis-Menten constant Km were calculated using Lineweaver-Burk transformation. From Km an appropriate drug concentration of 2 µM was derived as prerequisite for experimental in vitro determination of t1/2 required for further exploration of clearance.
For this purpose, microsomes were incubated as described above with 2 µM SH045 for indicated time intervals up to 30 min. The remaining concentrations of SH045 were determined to calculate the intrinsic microsomal clearance CLint,micr the intrinsic clearance CLint, equal to the maximum enzyme activity of liver and for in vitro-in vivo exploration of hepatic clearance CLhep in mouse and human using the “well-stirred” model [6].
SM7 Identification of metabolism pathways and metabolites of SH045 in MLM and HLM To determine possible metabolism pathways of SH045 in MLM and HLM, an in vitro inhibition approach was performed with CYP-isoform specific inhibitors (final concentration): ciprofloxacin (CYP1A2; 150 µM), pilocarpine (CYP2A6; 50 µM), ticlopidine (CYP2B6; 5 µM), quercetin (CYP2C8; 2 µM), sulfaphenazole (CYP2C9; 10 µM), fluvoxamine (CYP2C19; 10 µM), quinidine (CYP2D6; 10 µM), 4-methyl pyrazole (CYP2E1; 100 µM) and ketoconazole (CYP3A4; 1 µM) [7, 8]. The inhibitors were dissolved in DPBS and appropriate methanol, the organic solvents not […]
SH045 (2 µM) was pre-incubated with MLM or HLM (0.5 mg/mL) and the specific inhibitor for 5 min at 37 °C in DPBS.
Ticlopidine, a time-dependent inhibitor was pre-incubated for 15 min [9]. Incubations were performed in triplicate with NADPH (1 mM) in a final volume of 500 µL for 2 min and 10 min with pre-incubated MLM and HLM, respectively, terminated with 1 mL ice-cold ACN and processed as described above for LC-MS/MS. A sample without any inhibitor served as a positive control. […]

CLint scaled at 2 µM (human, liver microsomes, scaled from CLint,micr): 334 mL/min/kg
CLhep (human, predicted by well-stirred model, Q 21 mL/min/kg): 0.96 mL/min/kg
CLint (human, scaled from CLint,micr): 334.6 mL/min/kg
half-life at 2 µM (pH 7.4, human liver microsomes 0.5 mg/mL, 2 µM SH045, NADPH): 4.85 min
microsomal CLint at 2 µM (pH 7.4, human liver microsomes, read-out: CLint, micr): 286 µL/min/mg
SMILES: C=C[C@@](C)(O)CC[C@H]1C(=C)C[C@H](OC(=O)NC)[C@H]2C(C)(C)CCC[C@]12C [SH045, (1S,4S,4aR,8aS)-4-((S)-3-Hydroxy-3-methylpent-4-en-1-yl)-4a,8,8-trimethyl-3-methylenedecahydronaphthalen-1-yl methylcarbamate]
